Source: patent US20220323406A1, “METHODS AND COMPOSITIONS FOR DIFFERENTIATING STEM CELLS” (Massachusetts Institute of Technology, priority 2019, published 2022)
Structures can show the parent of a compound that is named as a salt.

How the values were obtained:
ENR+CD organoids = test: Primary screen: ATP (CellTiter-Glo 3D, CTG) cell number/viability, 2.5-D 384-well ENR+CD organoids; settings: primary screen; for Z.CTG: standard z score;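 as to all read-outs here: compounds given at plating and again on day 3 over a 6-day differentiation from ENR+CV stem-cell-enriched precursors, ATP measured on day 6, plate median as control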
[1] = test system: ENR+CD organoids (ISC to Paneth cell differentiation); test: Primary screen: CCh-stimulated lysozyme secretion LYZ.S, 2.5-D 384-well ENR+CD organoid differentiation; format: cell-based, mouse; settings: primary screen
From the text: (§1) High-throughput screening.

[2] = test system: ENR+CD organoids (ISC to Paneth cell differentiation); test: Primary screen: basal (non-stimulated) lysozyme secretion LYZ.NS, 2.5-D 384-well ENR+CD organoid differentiation; format: cell-based, mouse
From the text: as §1

[3] = dose 0.08 uM, FC relative to plate median
[4] = dose 0.40 uM, FC relative to plate median
[5] = dose 2.00 uM, FC relative to plate median
[6] = dose 10.00 uM, FC relative to plate median
[7] = 1st dose row of the treatment (0.08 uM by row order; dose not reprinted)
[8] = 2nd dose row of the treatment (0.40 uM by row order; dose not reprinted)
[9] = 3rd dose row of the treatment (2.00 uM by row order; dose not reprinted)
[10] = 4th dose row of the treatment (10.00 uM by row order; dose not reprinted)

Row | Compound | Dose.FC.CTG (ENR+CD organoids; dose 0.08 uM) | Dose.FC.CTG (ENR+CD organoids; dose 0.40 uM) | Dose.FC.CTG (ENR+CD organoids; dose 2.00 uM) | Dose.FC.CTG (ENR+CD organoids; dose 10.00 uM) | Dose.FC.LYZ.S ([1]; dose 0.08 uM) | Dose.FC.LYZ.S ([1]; dose 0.40 uM) | Dose.FC.LYZ.S ([1]; dose 2.00 uM) | Dose.FC.LYZ.S ([1]; dose 10.00 uM) | Dose.FC.LYZ.NS ([2]; primary screen, dose 0.08 uM) | Dose.FC.LYZ.NS ([2]; primary screen, dose 0.40 uM) | Dose.FC.LYZ.NS ([2]; primary screen, dose 2.00 uM) | Dose.FC.LYZ.NS ([2]; primary screen, dose 10.00 uM) | Z.LYZ.NS (standard z score) ([2]; primary screen, dose 0.08 uM) | Z.LYZ.NS (standard z score) ([2]; primary screen, dose 0.40 uM) | Z.LYZ.NS (standard z score) ([2]; primary screen, dose 2.00 uM) | Z.LYZ.NS (standard z score) ([2]; primary screen, dose 10.00 uM) | further results
1 | CN1CCC[C@@H]1CCO[C@](C)(c1ccccc1)c1ccc(Cl)cc1 [Clemastine Fumarate] | 0.242 log2 fold change | 0.036 log2 fold change | 0.024 log2 fold change | −0.424 log2 fold change | 0.096 log2 fold change | −0.066 log2 fold change | −0.048 log2 fold change | 0.001 log2 fold change | 0.024 log2 fold change | −0.026 log2 fold change | −0.014 log2 fold change | −0.061 log2 fold change |  |  |  |  | Z.CTG (ENR+CD organoids; dose 0.08 uM): 0.578; Z.CTG (ENR+CD organoids; dose 0.40 uM): 0.086; Z.CTG (ENR+CD organoids; dose 2.00 uM): 0.058; Z.CTG (ENR+CD organoids; dose 10.00 uM): −1.013; Z.LYZ.NS ([2]; primary screen, standard z score, dose 0.08 uM): 0.210; Z.LYZ.NS ([2]; primary screen, standard z score, dose 0.40 uM): −0.227; Z.LYZ.NS ([2]; primary screen, standard z score, dose 2.00 uM): −0.124; Z.LYZ.NS ([2]; primary screen, standard z score, dose 10.00 uM): −0.534
2 | O=C(NC[C@H]1CN(c2ccc(N3CCOCC3=O)cc2)C(=O)O1)c1ccc(Cl)s1 [Rivaroxaban] |  |  |  |  |  |  |  |  |  |  |  |  |  |  |  |  | Dose.FC.CTG (ENR+CD organoids; [3]): 0.021 log2 fold change; Dose.FC.CTG (ENR+CD organoids; [4]): 0.195 log2 fold change; Dose.FC.CTG (ENR+CD organoids; [5]): 0.052 log2 fold change; Dose.FC.CTG (ENR+CD organoids; [6]): 0.044 log2 fold change; Dose.FC.LYZ.S [1, 3]: 0.136 log2 fold change; Dose.FC.LYZ.S [1, 4]: −0.027 log2 fold change; Dose.FC.LYZ.S [1, 5]: 0.063 log2 fold change; Dose.FC.LYZ.S [1, 6]: −0.048 log2 fold change; Dose.FC.LYZ.NS ([2]; primary screen, dose 0.08 uM, FC relative to plate median): 0.108 log2 fold change; Z.LYZ.NS ([2]; primary screen, dose 0.08 uM, standard z score): 0.941; Dose.FC.LYZ.NS ([2]; primary screen, dose 0.40 uM, FC relative to plate median): −0.029 log2 fold change; Z.LYZ.NS ([2]; primary screen, dose 0.40 uM, standard z score): −0.248; Dose.FC.LYZ.NS ([2]; primary screen, dose 2.00 uM, FC relative to plate median): 0.153 log2 fold change; Z.LYZ.NS ([2]; primary screen, dose 2.00 uM, standard z score): 1.336; Dose.FC.LYZ.NS ([2]; primary screen, dose 10.00 uM, FC relative to plate median): −0.045 log2 fold change; Z.LYZ.NS ([2]; primary screen, dose 10.00 uM, standard z score): −0.390
3 | C[C@@H](O[C@H]1OCCN(Cc2n[nH]c(=O)[nH]2)[C@H]1c1ccc(F)cc1)c1cc(C(F)(F)F)cc(C(F)(F)F)c1 [Aprepitant] | 0.313 log2 fold change | 0.403 log2 fold change | 0.145 log2 fold change | 0.051 log2 fold change | 0.115 log2 fold change | 0.107 log2 fold change | −0.007 log2 fold change | −0.119 log2 fold change | 0.097 log2 fold change | 0.061 log2 fold change | 0.005 log2 fold change | −0.090 log2 fold change | 0.840 | 0.532 | 0.043 | −0.780 | 
4 | C[C@H](Oc1cc(-c2cnn(C3CCNCC3)c2)cnc1N)c1c(Cl)ccc(F)c1Cl [(S)-crizotinib] | 0.241 log2 fold change | 0.054 log2 fold change | 0.111 log2 fold change | 0.019 log2 fold change | 0.125 log2 fold change | 0.016 log2 fold change | −0.059 log2 fold change | −0.111 log2 fold change | 0.193 log2 fold change | 0.009 log2 fold change | −0.034 log2 fold change | −0.068 log2 fold change | 1.679 | 0.081 | −0.294 | −0.588 | SSMD.CTG.Rep (strictly standardized mean difference) (ENR+CD organoids; [7]): 0.742; SSMD.CTG.Rep (strictly standardized mean difference) (ENR+CD organoids; [8]): 0.190; SSMD.CTG.Rep (strictly standardized mean difference) (ENR+CD organoids; [9]): 0.285; SSMD.CTG.Rep (strictly standardized mean difference) (ENR+CD organoids; [10]): 0.034; Z.CTG (standard z score) (ENR+CD organoids; dose 0.08 uM): 0.575; Z.CTG (standard z score) (ENR+CD organoids; dose 0.40 uM): 0.130; Z.CTG (standard z score) (ENR+CD organoids; dose 2.00 uM): 0.266; Z.CTG (standard z score) (ENR+CD organoids; dose 10.00 uM): 0.046; SSMD.LYZ.S_Rep (strictly standardized mean difference) [1, 7]: 0.881; Z.LYZ.S (standard z score) [1, 7]: 0.808; SSMD.LYZ.S_Rep (strictly standardized mean difference) [1, 8]: 0.084; Z.LYZ.S (standard z score) [1, 8]: 0.103; SSMD.LYZ.S_Rep (strictly standardized mean difference) [1, 9]: −0.343; Z.LYZ.S (standard z score) [1, 9]: −0.383; SSMD.LYZ.S_Rep (strictly standardized mean difference) [1, 10]: −0.491; Z.LYZ.S (standard z score) [1, 10]: −0.720; SSMD.LYZ.NS_Rep (strictly standardized mean difference) ([2]; primary screen, 1st dose row of the treatment (0.08 uM by row order; dose not reprinted)): 0.838; SSMD.LYZ.NS_Rep (strictly standardized mean difference) ([2]; primary screen, 2nd dose row of the treatment (0.40 uM by row order; dose not reprinted)): 0.094; SSMD.LYZ.NS_Rep (strictly standardized mean difference) ([2]; primary screen, 3rd dose row of the treatment (2.00 uM by row order; dose not reprinted)): −0.229; SSMD.LYZ.NS_Rep (strictly standardized mean difference) ([2]; primary screen, 4th dose row of the treatment (10.00 uM by row order; dose not reprinted)): −0.438
